From the supplement of paper PMC10331698 come the findings set out here.

Assay in all cases: level (log10 ratio to DMSO vehicle control); higher = higher biomarker level / cell amount than vehicle control
Holding throughout (details): in DMSO

Compound in test [1]: OCC(F)(F)C(F)(F)C(F)(F)C(F)(F)C(F)(F)C(F)(F)F [6:1 Fluorotelomer alcohol]
The protocol: (§1)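 BioMAP Diversity Plus panel of 12 human primary cell co-culture systems (3C, 4H, LPS, SAg, BT, BF4T, BE3C, CASM3C, HDF3CGF, KF3CT, MyoF, Mphg). Compounds were added 1 h before stimulation and left for 24 h (MyoF 48 h; BT 72 h for soluble read-outs or 6 d for IgG). Biomarkers were read by ELISA, cytotoxicity by SRB, PBMC viability and proliferation by Alamar Blue. Each well value was divided by the mean of 8 DMSO control wells on the same plate and log10 transformed; duplicate blinded samples were tested at 4 concentrations.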

Compound in test [2]: OCC(F)(F)C(F)(F)C(F)(F)C(F)(F)C(F)(F)C(F)(F)C(F)(F)C(F)(F)C(F)(F)C(F)(F)C(F)(F)F [11:1 Fluorotelomer alcohol]
The protocol:
as §1

Compound in test [3]: O=C(CC(=O)C(F)(F)C(F)(F)C(F)(F)F)c1cccs1 [(Perfluorobutyryl)-2-thenoylmethane]
The protocol:
as §1

Compound in a further test: O=C(O)C(F)(F)C(F)(F)C(=O)O [Tetrafluorosuccinic acid]
The method, then: as §1

Compound in test [4]: C=CC(=O)OCC(F)(F)C(F)(F)C(F)(F)C(F)(F)C(F)(F)C(F)(F)C(F)(F)C(F)F [1H,1H,9H-Perfluorononyl acrylate]
The protocol: as §1

Compound in test [5]: Cc1ccc(S(=O)(=O)OCC(F)(F)C(F)(F)C(F)(F)C(F)(F)C(F)(F)C(F)F)cc1 [1H,1H,7H-Perfluoroheptyl 4-methylbenzenesulfonate]
The protocol:
as §1

Compound in test [6]: FC(F)(F)COC(OCC(F)(F)F)OCC(F)(F)F [tris(Trifluoroethoxy)methane]
The protocol:
as §1

± gives the standard deviation of the averaged measurements.

As for BE3C:EGFR, the “level (log10)” value is 0.0115 ± 0.0064 in test [1] (6700 nM); 0.0035 ± 0.011 in test [1] (20000 nM); -0.0585 ± 0.081 in test [1] (60000 nM); -0.022 ± 0.011 in test [2] (1100 nM); -0.003 ± 0.018 in test [2] (3300 nM); -0.019 ± 0.0099 in test [2] (10000 nM). Also, the “level (log10)” value was -0.0725 ± 0.029 in test [3] (6700 nM); -0.094 ± 0.041 in test [3] (20000 nM); -0.008 ± 0.0042 in the test with Tetrafluorosuccinic acid (6700 nM); -0.0055 ± 0.019 with Tetrafluorosuccinic acid (20000 nM); 0.003 ± 0.0042 with Tetrafluorosuccinic acid (60000 nM); -0.0025 ± 0.005 in test [4] (6700 nM). In addition, the “level (log10)” value is 0.003 ± 0.0071 in test [4] (20000 nM); -0.014 ± 0.023 in test [4] (60000 nM); -0.0255 ± 0.0035 in test [5] (6700 nM); -0.03 ± 0.035 in test [5] (20000 nM); -0.027 ± 0.0028 in test [5] (60000 nM); 0.022 ± 0.041 in test [6] (6700 nM). Further, the “level (log10)” value is 0.0095 ± 0.033 in test [6] (20000 nM) and 0.005 ± 0.021 in test [6] (60000 nM).
Regarding BE3C:HLA-DR, the “level (log10)” value in test [1] (6700 nM) was 0.009 ± 0.025; in test [1] (20000 nM), -0.0085 ± 0.026; in test [1] (60000 nM) it was -0.077 ± 0.13; in test [2] (1100 nM), -0.0755 ± 0.037; in test [2] (3300 nM) it was -0.141 ± 0.015; in test [2] (10000 nM), -0.163 ± 0.0042. The “level (log10)” value was -0.044 ± 0.0028 in test [3] (6700 nM); -0.41 ± 0.032 in test [3] (20000 nM); -0.027 ± 0.0028 in the test with Tetrafluorosuccinic acid (6700 nM); -0.0045 ± 0.0035 with Tetrafluorosuccinic acid (20000 nM); 0.004 ± 0.0014 with Tetrafluorosuccinic acid (60000 nM); -0.0215 ± 0.029 in test [4] (6700 nM). The “level (log10)” value in test [4] (20000 nM) is -0.01 ± 0.021; in test [4] (60000 nM), -0.0305 ± 0.012; in test [5] (6700 nM), -0.0155 ± 0.005; in test [5] (20000 nM), -0.0195 ± 0.012; in test [5] (60000 nM), -0.025 ± 0.0014; in test [6] (6700 nM), -0.0015 ± 0.011. Further, the “level (log10)” value in test [6] (20000 nM) was 0.0155 ± 0.0064; in test [6] (60000 nM), 0.006 ± 0.021.
Turning to 4H:CD106/VCAM-1, the “level (log10)” value in test [1] (6700 nM) was 0.0035 ± 0.033; in test [1] (20000 nM), -0.0045 ± 0.049; in test [1] (60000 nM), 0.0195 ± 0.0078; in test [2] (1100 nM), 0.0285 ± 0.022; in test [2] (3300 nM), 0.0115 ± 0.057; in test [2] (10000 nM), 0.024 ± 0.038. The “level (log10)” value in test [3] (6700 nM) is -0.009 ± 0.0071; in test [3] (20000 nM) it was -0.234 ± 0.04; with Tetrafluorosuccinic acid (6700 nM), 0.029 ± 0.033; with Tetrafluorosuccinic acid (20000 nM), 0.0065 ± 0.005; with Tetrafluorosuccinic acid (60000 nM) it was 0.0485 ± 0.018; in test [4] (6700 nM) it was -0.02 ± 0.0071. Moreover, the “level (log10)” value is -0.023 ± 0.0028 in test [4] (20000 nM); -0.0425 ± 0.03 in test [4] (60000 nM); -0.0065 ± 0.0078 in test [5] (6700 nM); -0.032 ± 0.013 in test [5] (20000 nM); -0.0295 ± 0.011 in test [5] (60000 nM); -0.0145 ± 0.0035 in test [6] (6700 nM). In addition, the entries for the “level (log10)” value in test [6] (20000 nM) and in test [6] (60000 nM) were -0.0025 ± 0.0078 and -0.009 ± 0.0071, respectively.
With LPS:CCL2/MCP-1, the “level (log10)” value was -0.0015 ± 0.029 in test [1] (6700 nM); -0.0045 ± 0.012 in test [1] (20000 nM); 0.0045 ± 0.029 in test [1] (60000 nM); -0.001 ± 0.0028 in test [2] (1100 nM); -0.011 ± 0.011 in test [2] (3300 nM); -0.009 ± 0.035 in test [2] (10000 nM). In addition, the “level (log10)” value in test [3] (6700 nM) was -0.0475 ± 0.0035; in test [3] (20000 nM) it was -0.131 ± 0.0057; in the test with Tetrafluorosuccinic acid (6700 nM), -0.02 ± 0.0085; in the test with Tetrafluorosuccinic acid (20000 nM), -0.027 ± 0.014; in the test with Tetrafluorosuccinic acid (60000 nM) it was -0.0095 ± 0.043; in test [4] (6700 nM), -0.023 ± 0.021. The “level (log10)” value was -0.007 ± 0.045 in test [4] (20000 nM); -0.055 ± 0.0085 in test [4] (60000 nM); -0.013 ± 0.0057 in test [5] (6700 nM); -0.01 ± 0.0071 in test [5] (20000 nM); -0.004 ± 0.013 in test [5] (60000 nM); 0.0085 ± 0.04 in test [6] (6700 nM). In addition, the “level (log10)” value in test [6] (20000 nM) was found to be 0.021 ± 0.042; in test [6] (60000 nM), 0.036 ± 0.034.
For the test system BT:B cell Proliferation, the “level (log10)” value in test [1] (6700 nM) is -0.007 ± 0.013; in test [1] (20000 nM), -0.009 ± 0.038; in test [1] (60000 nM), -0.148 ± 0.1; in test [2] (1100 nM), -0.103 ± 0.023; in test [2] (3300 nM), -0.144 ± 0.026; in test [2] (10000 nM), -0.44 ± 0.42. For the same test system, the “level (log10)” value in test [3] (6700 nM) is -0.0105 ± 0.025; in test [3] (20000 nM), -0.122 ± 0.036; in the test with Tetrafluorosuccinic acid (6700 nM), -0.0055 ± 0.035; with Tetrafluorosuccinic acid (20000 nM) it was 0.0075 ± 0.019; with Tetrafluorosuccinic acid (60000 nM), 0.0285 ± 0.00071; in test [4] (6700 nM), -0.034 ± 0.0042. The “level (log10)” value in test [4] (20000 nM) was -0.0415 ± 0.0035; in test [4] (60000 nM), -0.253 ± 0.15; in test [5] (6700 nM) it was -0.0165 ± 0.012; in test [5] (20000 nM) it was 0.011 ± 0.0028; in test [5] (60000 nM) it was -0.034 ± 0.0057; in test [6] (6700 nM) it was -0.021 ± 0.021. Also, the “level (log10)” value in test [6] (20000 nM) was -0.005 ± 0.018; in test [6] (60000 nM) it was -0.006 ± 0.073.
Take LPS:CD106/VCAM-1: the “level (log10)” value in test [1] (6700 nM) was -0.033 ± 0.023; in test [1] (20000 nM), -0.041 ± 0.016; in test [1] (60000 nM), -0.023 ± 0.02; in test [2] (1100 nM), -0.025 ± 0.0042; in test [2] (3300 nM) it was -0.025 ± 0.02; in test [2] (10000 nM) it was -0.015 ± 0.0028. Also, the “level (log10)” value in test [3] (6700 nM) was -0.0045 ± 0.011; in test [3] (20000 nM) it was -0.023 ± 0.031; with Tetrafluorosuccinic acid (6700 nM) it was -0.0245 ± 0.026; with Tetrafluorosuccinic acid (20000 nM), -0.007 ± 0.0057; with Tetrafluorosuccinic acid (60000 nM) it was 0.002 ± 0.018; in test [4] (6700 nM), -0.002 ± 0.011. In addition, the “level (log10)” value was -0.0365 ± 0.019 in test [4] (20000 nM); -0.0565 ± 0.0021 in test [4] (60000 nM); 0.01 ± 0.0071 in test [5] (6700 nM); 0.006 ± 0.0014 in test [5] (20000 nM); 0.025 ± 0.011 in test [5] (60000 nM); -0.025 ± 0.027 in test [6] (6700 nM). For the same test system, the “level (log10)” value worked out at 0.011 ± 0.013 in test [6] (20000 nM) and 0.002 ± 0.037 in test [6] (60000 nM).
Take BE3C:CXCL9/MIG: the “level (log10)” value in test [1] (6700 nM) was -0.005 ± 0.013; in test [1] (20000 nM), -0.002 ± 0.0099; in test [1] (60000 nM) it was -0.545 ± 0.4; in test [2] (1100 nM), -0.0195 ± 0.00071; in test [2] (3300 nM) it was -0.03 ± 0.0028; in test [2] (10000 nM), -0.0385 ± 0.022. Moreover, the “level (log10)” value is -0.0095 ± 0.016 in test [3] (6700 nM); -0.142 ± 0.0028 in test [3] (20000 nM); 0.005 ± 0.0071 with Tetrafluorosuccinic acid (6700 nM); 0 ± 0.0085 in the test with Tetrafluorosuccinic acid (20000 nM); 0.0075 ± 0.0092 in the test with Tetrafluorosuccinic acid (60000 nM); 0.008 ± 0.0028 in test [4] (6700 nM). For the same test system, the “level (log10)” value is 0.0055 ± 0.0078 in test [4] (20000 nM); 0.0035 ± 0.0021 in test [4] (60000 nM); 0.005 ± 0.016 in test [5] (6700 nM); -0.001 ± 0.0028 in test [5] (20000 nM); 0.0005 ± 0.021 in test [5] (60000 nM); 0.001 ± 0.0071 in test [6] (6700 nM). In addition, the “level (log10)” value in test [6] (20000 nM) is 0.0025 ± 0.023; in test [6] (60000 nM), -0.0045 ± 0.018.
